Here are results for four compounds from patent US9700563B2, “Kappa opioid receptor compounds” (MediSynergies, LLC, priority 2012, dated 2017).

For data set [1] the following is noted: cited from earlier work.
Data set [2] addresses Human MOR (Homo sapiens (Human), UniProt P35372). In words: Opioid receptor affinity, Mu (MOR), NIMH PDSP. Particulars: read-out: MOR % inh. at 10 uM. The class given is binding. The procedure: (§1) The compounds were tested for activity vs. opioid receptor subtypes Kappa (KOR), Delta (DOR) and Mu (MOR) at an initial concentration of 10 μM each, through the NIMH Psychoactive Drug Screening Program (PDSP), operated by Dr. Bryan Roth and his colleagues in the Department of Pharmacology at the University of North Carolina (Chapel Hill, N.C.) through an agreement with the National Institute of Mental Health (NIMH). Human KOR, DOR and MOR were expressed in CHO cells for each assay.

Data set [3] addresses Human KOR (Homo sapiens (Human), UniProt P41145). In words: Opioid receptor affinity, Kappa (KOR), NIMH PDSP. The class given is binding. Conditions: human KOR expressed in CHO cells. The method, then:
as §1

The target in data set [4] is Human DOR (Homo sapiens (Human), UniProt P41143). In words: Opioid receptor affinity, Delta (DOR), NIMH PDSP. It counts as binding. Conditions: read-out: DOR % inh. at 10 uM. The procedure: as §1
Chain of Human DOR (P41143 whole entry): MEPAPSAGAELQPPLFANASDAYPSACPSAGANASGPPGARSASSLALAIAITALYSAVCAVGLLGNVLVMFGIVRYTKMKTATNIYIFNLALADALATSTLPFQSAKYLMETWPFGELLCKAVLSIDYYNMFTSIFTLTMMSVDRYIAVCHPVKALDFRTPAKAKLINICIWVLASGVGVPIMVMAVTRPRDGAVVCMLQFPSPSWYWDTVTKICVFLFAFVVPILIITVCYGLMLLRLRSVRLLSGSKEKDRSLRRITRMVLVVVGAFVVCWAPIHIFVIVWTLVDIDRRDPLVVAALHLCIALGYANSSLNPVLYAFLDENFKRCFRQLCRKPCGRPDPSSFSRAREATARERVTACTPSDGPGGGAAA

Chain of Human MOR (P35372 whole entry): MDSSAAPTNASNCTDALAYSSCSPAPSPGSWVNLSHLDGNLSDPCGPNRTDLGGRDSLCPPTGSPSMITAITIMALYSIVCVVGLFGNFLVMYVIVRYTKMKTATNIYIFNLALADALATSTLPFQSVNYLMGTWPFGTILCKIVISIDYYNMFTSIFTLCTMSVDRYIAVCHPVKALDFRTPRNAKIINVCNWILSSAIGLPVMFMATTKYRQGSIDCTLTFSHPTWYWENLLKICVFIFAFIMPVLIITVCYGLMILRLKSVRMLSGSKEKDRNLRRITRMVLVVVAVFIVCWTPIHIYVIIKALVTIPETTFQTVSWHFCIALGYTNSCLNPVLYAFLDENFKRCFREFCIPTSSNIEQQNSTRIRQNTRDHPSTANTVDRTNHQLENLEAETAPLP
Chain of Human KOR (P41145 whole entry): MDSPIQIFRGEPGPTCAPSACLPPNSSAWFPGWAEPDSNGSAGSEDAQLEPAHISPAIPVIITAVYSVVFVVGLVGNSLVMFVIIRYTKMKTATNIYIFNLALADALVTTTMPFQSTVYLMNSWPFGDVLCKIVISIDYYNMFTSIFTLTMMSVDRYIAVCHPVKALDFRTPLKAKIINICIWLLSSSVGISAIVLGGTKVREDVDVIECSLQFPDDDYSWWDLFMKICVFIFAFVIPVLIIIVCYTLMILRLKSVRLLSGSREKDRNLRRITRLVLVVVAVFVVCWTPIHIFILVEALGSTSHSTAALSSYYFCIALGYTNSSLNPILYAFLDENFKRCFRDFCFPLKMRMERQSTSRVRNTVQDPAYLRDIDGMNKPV

As for `CC(C)C[C@@H](NC(=O)[C@@H](Cc1ccccc1)NC(=O)[C@H](N)Cc1ccccc1)C(=O)N[C@H](CCCCN)C(=O)N1CCC(N)(C(=O)O)CC1` [CR845], the “dysphoric behavior or hallucinations” value in data set [1] (Phase II trials in the U.S.) is reported as “has not displayed dysphoric behavior or hallucinations”. Moreover, the “incidence of nausea and vomiting” value in data set [1] (post-operative patients) is “reduced incidence of nausea and vomiting”.
The term Ki denotes the dissociation constant of the complex between target and ligand, obtained from inhibition or displacement. The low end stands for higher affinity, the high end for lower affinity. Turning to `CN(C)CCCC1(c2ccc(F)cc2)OCc2cc(C(=N)NCc3ccccc3)ccc21` (stereo not shown) [Example 4, N-benzyl-1-[3-(dimethylamino)propyl]-1-(4-fluorophenyl)-1,3-dihydro-2-benzofuran-5-carboximidamide], the inhibition at 10 µM in data set [2] turned out to be 39%; in data set [4], 10%. In data set [3], this compound gave a Ki of 30 nM.
Turning to `CN(C)CCCC1(c2ccc(F)cc2)OCc2cc(C(=N)N3CCCC3)ccc21` (stereo not shown) [Example 6, 1-[1-[3-(dimethylamino)propyl]-1-(4-fluorophenyl)-1,3-dihydro-2-benzofuran-5-yl]-1-(pyrrolidin-1-yl)-methanimine], the values for the inhibition at 10 µM in data set [2] and in data set [4] were 8% and 6%, respectively. Also, in data set [3], the affinity, expressed as Ki, was 249 nM.
For the compound `CN(C)CCCC1(c2ccc(F)cc2)OCc2cc(-c3ncc[nH]3)ccc21` (stereo not shown) [Example 7], the figures for the inhibition at 10 µM in data set [2] and in data set [4] were 39% and 24%, respectively.
